Data taken from patent US9522888B2, “Substituted bicyclic compounds” (BRISTOL-MYERS SQUIBB COMPANY, priority 2014, dated 2016).

What was measured:
[1] = molecular target: S1P1 (membranes prepared from S1P1/CHO cells) (Homo sapiens (Human), UniProt P21453); assay: Receptor [35S] GTPγS binding assay (S1P1 GTPγS); assay type: biochemical; conditions: phosphate examples; read-out: S1P1 GTPγS
Outline: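 Membranes from S1P1-expressing CHO cells (3 μg protein/well) incubated with compound (11-point, 3-fold dilution) and 0.2 nM final [35S]GTPγS, 45 min at room temperature. Assay buffer: 20 mM HEPES pH 7.5, 10 mM MgCl2, 150 mM NaCl, 10 μM GDP, 0.1% fatty-acid-free BSA, 10 μg/ml saponin. Filter-bound radioactivity counted by scintillation; EC50 derived.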

human S1P1 = human S1P1 (Homo sapiens (Human), UniProt P21453); assay: S1P1 binding assay (33P-S1P radioligand competition, CHO cell membranes); conditions: phosphate examples; read-out: S1P1 Binding
human S1P1, sequence (P21453 whole entry): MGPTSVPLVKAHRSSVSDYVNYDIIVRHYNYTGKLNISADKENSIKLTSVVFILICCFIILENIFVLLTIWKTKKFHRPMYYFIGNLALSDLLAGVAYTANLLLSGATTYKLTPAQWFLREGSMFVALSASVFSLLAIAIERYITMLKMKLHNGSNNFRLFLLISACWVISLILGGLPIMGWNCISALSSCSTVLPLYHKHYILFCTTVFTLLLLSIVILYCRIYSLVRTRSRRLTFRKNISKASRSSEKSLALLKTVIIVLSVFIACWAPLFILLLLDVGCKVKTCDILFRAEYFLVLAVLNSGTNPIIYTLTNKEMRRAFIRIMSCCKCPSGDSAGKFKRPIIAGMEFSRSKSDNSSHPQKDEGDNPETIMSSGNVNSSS
Outline: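 Radioligand is 33P-S1P, competing for membranes from human S1P1-expressing CHO cells. Membranes resuspended in 50 mM HEPES pH 7.5, 100 mM NaCl, 1 mM MgCl2, 2 mM EDTA.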

[2] = molecular target: S1P3 (membranes prepared from EDG3-Gal5-bla HEK293T cells) (Homo sapiens (Human), UniProt Q99500); assay: Receptor [35S] GTPγS binding assay (S1P3 GTPγS); assay type: biochemical; conditions: phosphate examples; read-out: S1P3 GTPγS
S1P3 (membranes prepared from EDG3-Gal5-bla HEK293T cells), sequence (Q99500 whole entry): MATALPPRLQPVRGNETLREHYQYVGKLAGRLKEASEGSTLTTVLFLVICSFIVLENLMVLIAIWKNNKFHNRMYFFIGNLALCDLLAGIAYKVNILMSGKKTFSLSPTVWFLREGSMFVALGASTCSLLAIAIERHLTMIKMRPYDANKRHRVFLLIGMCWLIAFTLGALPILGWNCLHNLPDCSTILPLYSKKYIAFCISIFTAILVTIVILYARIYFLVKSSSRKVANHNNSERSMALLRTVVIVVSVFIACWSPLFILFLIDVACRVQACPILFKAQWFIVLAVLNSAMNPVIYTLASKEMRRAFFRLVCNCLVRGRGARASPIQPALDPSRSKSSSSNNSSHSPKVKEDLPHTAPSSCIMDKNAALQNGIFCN
Outline: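 Membranes (3 μg protein/well) from S1P1/CHO cells or EDG3-Gal5-bla HEK293T cells (S1P3) were incubated 45 min at room temperature with 0.2 nM final [35S]GTPγS in HEPES pH 7.5 buffer with 10 μM GDP, MgCl2 and saponin. Bound label counted after filtration; EC50 from 11-point, 3-fold dilutions.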

hS1P1/CHO cells = hS1P1/CHO cells (Homo sapiens (Human), UniProt P21453); assay: hS1P1 ERK phosphorylation (S1P1 pERK); assay type: cell-based; conditions: phosphate examples
hS1P1/CHO cells, sequence (P21453 whole entry): as the sequence (P21453 whole entry) above
Outline: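 CHO cells expressing human S1P1, serum-starved 2 h, exposed to compound in HBSS/20 mM HEPES for 7 min at 37° C. Lysates assayed for phospho-ERK by SureFire kit; response given as % activation relative to 10 μM S1P.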

S1P1 (membranes prepared from S1P1/CHO cells), sequence (P21453 whole entry): as above

SMILES: CCCCCO[C@H]1CCc2cc([C@@H]3CC[C@](N)(COP(=O)(O)O)C3)ccc2C1 [compound 434]
- EC50 [1]: 10 to 100 nM
- IC50 (human S1P1): < 10 nM
- EC50 [2]: > 625 nM
- EC50 (hS1P1/CHO cells): < 10 nM

SMILES: COCC[C@@H]1CCc2cc([C@H]3CC[C@](N)(COP(=O)(O)O)C3)ccc2C1 [compound 540]
- EC50 [1]: 100 to 1000 nM
- IC50 (human S1P1): < 10 nM
- EC50 [2]: > 625 nM
- EC50 (hS1P1/CHO cells): < 10 nM

SMILES: N[C@]1(COP(=O)(O)O)CC[C@H](c2ccc3c(c2)CC[C@@H](CCC2CCOCC2)C3)C1 [compound 558]
- EC50 [1]: < 10 nM
- IC50 (human S1P1): < 10 nM
- EC50 [2]: > 625 nM
- EC50 (hS1P1/CHO cells): < 10 nM

SMILES: COCc1cccc(C[C@@H]2CCc3cc([C@H]4CC[C@](N)(COP(=O)(O)O)C4)ccc3C2)c1 [compound 552]
- EC50 [1]: 10 to 100 nM
- IC50 (human S1P1): < 10 nM
- EC50 [2]: > 625 nM
- EC50 (hS1P1/CHO cells): 10 to 100 nM

SMILES: COc1cc(CC[C@H]2CCc3cc([C@@H]4CC[C@@](N)(COP(=O)(O)O)C4)ccc3C2)ccc1F (single isomer, unassigned) [compound 608]
- EC50 [1]: < 10 nM
- IC50 (human S1P1): < 10 nM
- EC50 [2]: > 625 nM
- EC50 (hS1P1/CHO cells): < 10 nM

SMILES: CCCC[C@H]1CCCC2(CCc3cc([C@H]4CC[C@](N)(COP(=O)(O)O)C4)ccc3C2)O1 (stereo partly drawn) [compound 632]
- EC50 [1]: 10 to 100 nM
- IC50 (human S1P1): 10 to 100 nM
- EC50 [2]: > 625 nM
- EC50 (hS1P1/CHO cells): < 10 nM

SMILES: CC(C)SCC[C@H]1CCc2cc([C@H]3CC[C@](N)(COP(=O)(O)O)C3)ccc2C1 [compound 536]
- EC50 [1]: 10 to 100 nM
- IC50 (human S1P1): < 10 nM
- EC50 [2]: > 625 nM
- EC50 (hS1P1/CHO cells): < 10 nM

SMILES: Cc1ccccc1OC[C@@H]1CCc2cc([C@H]3CC[C@](N)(COP(=O)(O)O)C3)ccc2C1 [compound 469]
- EC50 [1]: 10 to 100 nM
- IC50 (human S1P1): 10 to 100 nM
- EC50 [2]: > 625 nM
- EC50 (hS1P1/CHO cells): < 10 nM

SMILES: Cc1ccc(OC[C@@H]2CCc3cc([C@H]4CC[C@](N)(COP(=O)(O)O)C4)ccc3C2)cc1 [compound 467]
- EC50 [1]: 10 to 100 nM
- IC50 (human S1P1): 10 to 100 nM
- EC50 [2]: > 625 nM
- EC50 (hS1P1/CHO cells): 10 to 100 nM

SMILES: CCOc1cccc(C[C@@H]2CCc3cc([C@H]4CC[C@](N)(COP(=O)(O)O)C4)ccc3C2)c1 [compound 551]
- EC50 [1]: 10 to 100 nM
- IC50 (human S1P1): 10 to 100 nM
- EC50 [2]: > 625 nM
- EC50 (hS1P1/CHO cells): 10 to 100 nM

SMILES: CCC=CCOC[C@@H]1CCc2cc([C@H]3CC[C@](N)(COP(=O)(O)O)C3)ccc2C1 [compound 456]
- EC50 [1]: < 10 nM
- IC50 (human S1P1): 10 to 100 nM
- EC50 [2]: > 625 nM
- EC50 (hS1P1/CHO cells): < 10 nM

SMILES: CCCCCC1CCc2cc([C@H]3CC[C@](N)(COP(=O)(O)O)C3)ccc2C1 (stereo partly drawn) [compound 576]
- EC50 [1]: 100 to 1000 nM
- IC50 (human S1P1): 10 to 100 nM
- EC50 [2]: > 625 nM
- EC50 (hS1P1/CHO cells): 10 to 100 nM

SMILES: COc1cc(OC[C@@H]2CCc3cc([C@H]4CC[C@](N)(COP(=O)(O)O)C4)ccc3C2)ccc1C(C)(C)C [compound 498]
- EC50 [1]: 100 to 1000 nM
- IC50 (human S1P1): 10 to 100 nM
- EC50 [2]: > 625 nM
- EC50 (hS1P1/CHO cells): 10 to 100 nM

SMILES: COCCC/C=C/[C@@H]1CCc2cc([C@H]3CC[C@](N)(COP(=O)(O)O)C3)ccc2C1 [compound 640]
- EC50 [1]: < 10 nM
- IC50 (human S1P1): < 10 nM
- EC50 [2]: > 625 nM
- EC50 (hS1P1/CHO cells): < 10 nM

SMILES: CCCCOC[C@@H]1CCc2cc([C@H]3CC[C@](N)(COP(=O)(O)O)C3)ccc2C1 [compound 447]
- EC50 [1]: 100 to 1000 nM
- IC50 (human S1P1): 10 to 100 nM
- EC50 [2]: > 625 nM
- EC50 (hS1P1/CHO cells): < 10 nM

SMILES: CCCCCC[C@H]1COc2cc([C@@H]3CC[C@](N)(COP(=O)(O)O)C3)ccc2C1 [compound 425]
- EC50 [1]: < 10 nM
- IC50 (human S1P1): < 10 nM
- EC50 [2]: > 625 nM
- EC50 (hS1P1/CHO cells): < 10 nM

SMILES: N[C@]1(COP(=O)(O)O)CC[C@H](c2ccc3c(c2)CC[C@@H](COCc2cccs2)C3)C1 [compound 472]
- EC50 [1]: 100 to 1000 nM
- IC50 (human S1P1): 100 to 1000 nM
- EC50 [2]: > 625 nM
- EC50 (hS1P1/CHO cells): < 10 nM

SMILES: CCCCSC[C@H]1CCc2cc([C@@H]3CC[C@](N)(COP(=O)(O)O)C3)ccc2C1 [compound 505]
- EC50 [1]: 10 to 100 nM
- IC50 (human S1P1): 10 to 100 nM
- EC50 [2]: > 625 nM
- EC50 (hS1P1/CHO cells): 10 to 100 nM

SMILES: CCCC[S+]([O-])C[C@@H]1CCc2cc([C@H]3CC[C@](N)(COP(=O)(O)O)C3)ccc2C1 (stereo partly drawn) [compound 668]
- EC50 [1]: < 10 nM
- IC50 (human S1P1): < 10 nM
- EC50 [2]: > 625 nM
- EC50 (hS1P1/CHO cells): 10 to 100 nM

SMILES: COc1ccccc1CCC[C@@H]1CCc2cc([C@H]3CC[C@](N)(COP(=O)(O)O)C3)ccc2C1 [compound 563]
- EC50 [1]: 100 to 1000 nM
- IC50 (human S1P1): 100 to 1000 nM
- EC50 [2]: > 625 nM
- EC50 (hS1P1/CHO cells): 100 to 1000 nM

SMILES: N[C@]1(COP(=O)(O)O)CC[C@H](c2ccc3c(c2)CC[C@@H](Cc2ccccc2)C3)C1 [compound 571]
- EC50 [1]: 10 to 100 nM
- IC50 (human S1P1): 10 to 100 nM
- EC50 [2]: > 625 nM
- EC50 (hS1P1/CHO cells): 10 to 100 nM

SMILES: COc1ccc(F)c(OC[C@@H]2CCc3cc([C@H]4CC[C@](N)(COP(=O)(O)O)C4)ccc3C2)c1 [compound 484]
- EC50 [1]: 10 to 100 nM
- IC50 (human S1P1): 100 to 1000 nM
- EC50 [2]: > 625 nM
- EC50 (hS1P1/CHO cells): 10 to 100 nM

SMILES: CC(C)CCOCCO[C@H]1CCc2cc([C@H]3CC[C@](N)(COP(=O)(O)O)C3)ccc2C1 [compound 587]
- EC50 [1]: 10 to 100 nM
- IC50 (human S1P1): < 10 nM
- EC50 [2]: > 625 nM
- EC50 (hS1P1/CHO cells): < 10 nM

SMILES: CC(C)CCSC[C@@H]1CCc2cc([C@H]3CC[C@](N)(COP(=O)(O)O)C3)ccc2C1 [compound 510]
- EC50 [1]: 10 to 100 nM
- IC50 (human S1P1): < 10 nM
- EC50 [2]: > 625 nM
- EC50 (hS1P1/CHO cells): < 10 nM

SMILES: CN(C)Cc1cccc(OC[C@@H]2CCc3cc([C@H]4CC[C@](N)(COP(=O)(O)O)C4)ccc3C2)c1 [compound 490]
- EC50 [1]: 100 to 1000 nM
- IC50 (human S1P1): < 10 nM
- EC50 [2]: > 625 nM
- EC50 (hS1P1/CHO cells): 10 to 100 nM

SMILES: N[C@]1(COP(=O)(O)O)CC[C@H](c2ccc3c(c2)CC[C@H](CS(=O)(=O)c2ccccc2)C3)C1 [compound 618]
- EC50 [1]: 100 to 1000 nM
- IC50 (human S1P1): 100 to 1000 nM
- EC50 [2]: > 625 nM
- EC50 (hS1P1/CHO cells): < 10 nM

SMILES: CC(C)=CCCC[C@@H]1CCc2cc([C@H]3CC[C@](N)(COP(=O)(O)O)C3)ccc2C1 [compound 556]
- EC50 [1]: < 10 nM
- IC50 (human S1P1): 1000 to 10000 nM
- EC50 [2]: > 625 nM
- EC50 (hS1P1/CHO cells): < 10 nM

SMILES: CCCCOCCO[C@H]1CCc2cc([C@@H]3CC[C@@](N)(COP(=O)(O)O)C3)ccc2C1 [compound 591]
- EC50 [1]: 10 to 100 nM
- IC50 (human S1P1): 10 to 100 nM
- EC50 [2]: > 625 nM
- EC50 (hS1P1/CHO cells): < 10 nM

SMILES: CC(C)CCOC[C@@H]1CCc2cc([C@H]3CC[C@](N)(COP(=O)(O)O)C3)ccc2C1 [compound 457]
- EC50 [1]: 10 to 100 nM
- IC50 (human S1P1): < 10 nM
- EC50 [2]: > 625 nM
- EC50 (hS1P1/CHO cells): < 10 nM

SMILES: CC(C)OCCC[C@@H]1CCc2cc([C@@H]3CC[C@@](N)(COP(=O)(O)O)C3)ccc2C1 [compound 602]
- EC50 [1]: < 10 nM
- IC50 (human S1P1): < 10 nM
- EC50 [2]: > 625 nM
- EC50 (hS1P1/CHO cells): < 10 nM

SMILES: COc1cccc(CO[C@H]2CCc3cc([C@H]4CC[C@](N)(COP(=O)(O)O)C4)ccc3C2)c1 [compound 442]
- EC50 [1]: < 10 nM
- IC50 (human S1P1): < 10 nM
- EC50 [2]: > 625 nM
- EC50 (hS1P1/CHO cells): < 10 nM

SMILES: CCCCCCN1CCc2cc([C@@H]3CC[C@](N)(COP(=O)(O)O)C3)ccc2C1=O [compound 417]
- EC50 [1]: 100 to 1000 nM
- IC50 (human S1P1): 10 to 100 nM
- EC50 [2]: > 625 nM
- EC50 (hS1P1/CHO cells): < 10 nM

SMILES: COc1ccccc1SC[C@@H]1CCc2cc([C@H]3CC[C@](N)(COP(=O)(O)O)C3)ccc2C1 [compound 527]
- EC50 [1]: < 10 nM
- IC50 (human S1P1): < 10 nM
- EC50 [2]: > 625 nM
- EC50 (hS1P1/CHO cells): < 10 nM
